# Data reported in ChEMBL document CHEMBL3588816, “Molecular modeling of the human P2Y14 receptor: A template for structure-based design of selective agonist ligands” (Bioorg Med Chem, 2015).
# Calls of active or inactive are those of the source. No cut-off for these calls is given here.
# Biological target: T1, P2Y purinoceptor 14 (Homo sapiens, UniProt Q15391)
# T1 sequence (Q15391 whole entry): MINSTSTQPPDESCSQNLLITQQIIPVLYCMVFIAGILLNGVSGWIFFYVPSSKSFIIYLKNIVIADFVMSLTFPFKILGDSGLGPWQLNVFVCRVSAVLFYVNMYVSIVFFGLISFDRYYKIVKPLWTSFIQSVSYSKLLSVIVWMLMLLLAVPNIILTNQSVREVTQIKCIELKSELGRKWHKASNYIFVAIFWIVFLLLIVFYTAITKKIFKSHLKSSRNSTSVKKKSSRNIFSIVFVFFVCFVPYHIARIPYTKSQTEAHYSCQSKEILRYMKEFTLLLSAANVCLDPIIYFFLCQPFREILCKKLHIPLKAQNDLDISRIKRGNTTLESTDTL
# Assay: Agonist activity at recombinant human P2Y14 receptor expressed in African green monkey COS7 cells co-transfected with Galphaqi assessed as stimulation of phospholipase Cbeta
# Type: cell-based, COS-7
# Conditions: not given
row,EC50 [nM],Structure (SMILES)
1,11,O=c1ccn([C@@H]2O[C@H](COP(=O)(O)OP(=O)(O)O[C@H]3O[C@H](CO)[C@@H](O)[C@H](O)[C@H]3O)[C@@H](O)[C@H]2O)c(=S)[nH]1

# Biological target: T2, P2Y purinoceptor 14 (Homo sapiens) (UniProt Q15391)
# T2 sequence (whole entry): T1 sequence (Q15391 whole entry)
# Assay: Agonist activity at recombinant human P2Y14 receptor expressed in African green monkey COS7 cells co-transfected with Galphaqi assessed as stimulation of phospholipase Cbeta at 10 uM
# Type: cell-based
# Conditions: COS-7
row,Structure (SMILES),Activity
1,Nc1cn([C@@H]2O[C@H](COP(=O)(O)OP(=O)(O)O[C@H]3O[C@H](CO)[C@@H](O)[C@H](O)[C@H]3O)[C@@H](O)[C@H]2O)c(=O)[nH]c1=O,inactive
2,[N-]=[N+]=Nc1cn([C@@H]2O[C@H](COP(=O)(O)OP(=O)(O)O[C@H]3O[C@H](CO)[C@@H](O)[C@H](O)[C@H]3O)[C@@H](O)[C@H]2O)c(=O)[nH]c1=O,inactive
3,O=c1ccn([C@H]2[C@H](O)[C@H](O)[C@]3(COP(=O)(O)OP(=O)(O)O[C@H]4O[C@H](CO)[C@@H](O)[C@H](O)[C@H]4O)C[C@H]23)c(=O)[nH]1,inactive
4,[N-]=[N+]=N[C@@H]1[C@H](O)[C@@H](COP(=O)(O)OP(=O)(O)O[C@H]2O[C@H](CO)[C@@H](O)[C@H](O)[C@H]2O)O[C@H]1n1ccc(=O)[nH]c1=O,inactive
5,O=c1ccn([C@]23C[C@H]2[C@H](COP(=O)(O)OP(=O)(O)O[C@H]2O[C@H](CO)[C@@H](O)[C@H](O)[C@H]2O)[C@@H](O)[C@H]3O)c(=O)[nH]1,inactive

# Second part, the compound after the results:
row,Activity,Structure (SMILES)
1,inactive,O=c1[nH]c(=O)n([C@@H]2O[C@H](COP(=O)(O)OP(=O)(O)O[C@H]3O[C@H](CO)[C@@H](O)[C@H](O)[C@H]3O)[C@@H](O)[C@H]2O)cc1I
2,inactive,N[C@@H]1[C@H](O)[C@@H](COP(=O)(O)OP(=O)(O)O[C@H]2O[C@H](CO)[C@@H](O)[C@H](O)[C@H]2O)O[C@H]1n1ccc(=O)[nH]c1=O
